Laboratory results from patent US9181232B2, “Difluoro-hexahydro-cyclopentaoxazinyls and difluoro-hexahydro-benzooxazinyls as BACE1 inhibitors” (Hoffmann-La Roche Inc., priority 2012, dated 2015).

Legend:
BACE1 = biological target: T1, BACE1 (Homo sapiens, UniProt P56817); assay: Cellular Aβ-lowering assay (Aβ40 ELISA, HEK293 cells expressing human APP695); format: cell-based; details: HEK293 cells stably expressing human APP695; Aβ40 in supernatant after 18-20 hrs; read-out: BACE1 cell act. Aβ40 IC50
T1 construct: Human HEK293 cells which are stably transfected with a vector expressing a cDNA of the human APP wt gene (APP695); endogenous in cells; host or cells: HEK293 stably expressing human APP695 wt
Method: Human HEK293 cells which are stably transfected with a vector expressing a cDNA of the human APP wt gene (APP695) were used to assess the potency of the compounds in a cellular assay. The cells were seeded in 96-well microtiter plates in cell culture medium (Iscove, plus 10% (v/v) fetal bovine serum, glutamine, penicillin/streptomycin) to about 80% confluence and the compounds were added at a 10× concentration in 1/10 volume of medium without FCS containing 8% DMSO (final concentration of DMSO was kept at 0.8% v/v). After 18-20 hrs incubation at 37° C. and 5% CO2 in a humidified incubator the culture supernatant was harvested for the determination of Aβ40 concentrations. 96 well ELISA plates (e.g., Nunc MaxiSorb) were coated with monoclonal antibody which specifically recognize the C-terminal end of Aβ40^10. After blocking of non-specific binding sites with e.g. 1% BSA and washing, the culture supernatants were added in suitable dilutions together with a horseradish peroxidase-coupled Aβ detection antibody (e.g., antibody 4G8, Senetek, Maryland Heights, Mo.) and incubated for 5 to 7 hrs. Subsequently the wells of the microtiter plate were washed extensively with Tris-buffered saline containing 0.05% Tween 20 and the assay was developed with tetramethylbenzidine/H2O2 in citric acid buffer. After stopping the reaction with one volume 1 N H2SO4 the reaction was measured in an ELISA reader at 450 nm wavelength. The concentrations of Aβ in the culture supernatants were calculated from a standard curve obtained with known amounts of pure Aβ peptide.

[1] = biological target: T2, cathepsin D (from human liver) (Homo sapiens, UniProt P07339); assay: Cathepsin D fluorescent substrate kinetic assay; format: biochemical; details: pH 5.5
T2 construct: cathepsin D (from human liver, Calbiochem); purchased Calbiochem; host or cells: human liver (tissue-purified)
From the text: The MR121 fluorescence assays described below are based on the fact that MR121 forms a non-fluorescent ground state complex with tryptophan. In solution this formation occurs at millimolar concentrations of tryptophan. The mechanism can be used to design a generic biochemical assay for proteases. A substrate peptide is labeled at the N-terminus with tryptophan and at the C-terminus with the fluorophore MR121 (for cathepsin D the 10 amino acid peptide WTSVLMAAPC-MR121 was used; for cathepsin E, MR121-CKLVFFAEDW was used). In absence of protease activity, the substrates remain intact and the MR121 fluorescence is reduced by the high local Trp-concentration. If the substrates are cleaved by the enzymes the MR121 fluorescence is recovered.
The fluorescent substrate cathepsin D and cathepsin E kinetic assays were performed at room temperature in 384-well microtiter plates (black with clear flat bottom, non binding surface plates from Corning) in a final volume of 51 μl. The test compounds were serially diluted in DMSO (15 concentrations, 1/3 dilution steps) and 1 μl of diluted compounds were mixed for 10 min with 40 μl of cathepsin D (from human liver, Calbiochem) diluted in assay buffer (100 mM sodium acetate, 0.05% BSA, pH 5.5; final concentration: 200 nM) or with 40 μl of recombinant human cathepsin E (R&D Systems) diluted in assay buffer (100 mM sodium acetate, 0.05% BSA, pH 4.5; final concentration: 0.01 nM). After addition of 10 μl of the cathepsin D substrate WTSVLMAAPC-MR121 diluted in cathepsin D assay buffer (final concentration: 300 nM) or […] cathepsin E substrate MR121-CKLVFFAEDW diluted in cathepsin E assay buffer (final concentration: 300 nM), the plates were strongly shaken for 2 minutes. The enzymatic reaction was followed in a plate: vision reader (Perkin Elmer) (excitation wavelength: 630 nm; emission: 695 nm) for at least 30 minutes in a kinetic measurement detecting an increase of MR121 fluorescence during the reaction time. The slope in the linear range of the kinetic was calculated and the IC50 of the test compounds were determined using a four parameter equation for curve fitting.

CYP2D6 = biological target: T3, CYP2D6 (Homo sapiens, UniProt P10635); assay: CYP inhibition assay, human liver microsomes, dextromethorphan; format: in vitro ADME; details: read-out: CYP IC50 2D6
T3 construct: 0.2 mg/ml pooled human liver microsomes; from tissue; host or cells: pooled human liver microsomes
Method: Inhibition of cytochromes P450 (CYPs) 2C9, 2D6 and 3A4 was assessed using human liver microsomes and CYP-selective substrate metabolism reactions. 50 μl incubations were made up containing (finally) 0.2 mg/ml pooled human liver microsomes, 5 μM substrate (diclofenac for CYP2C9 [4′hydroxylase], dextromethorphan for CYP2D6 [O-demethylase] or midazolam for CYP3A4 [1′hydroxylase]), 0.25 μL DMSO containing test inhibitor and NADPH regenerating system. Test inhibitor concentrations of 50, 16.7, 5.6, 1.9, 0.6 and 0.2 μM were assessed in singlicate. Incubations were prewarmed to 37° C. for 10 minutes before initiation by addition of NADPH regenerating system. Incubations were quenched after 5 minutes (20 minutes for dextromethorphan) by addition of 50 μl cold acetonitrile containing 20 ng/ml 4-OH-diclofenac-13C6, 20 ng/mL dextrorphan-D3 and 20 ng/mL 1-OH-midazolam-D4. Quenched incubates were stored at −20° C. for at least 1 hour before centrifugation (20,000×g, 20 minutes). Supernatants were removed and diluted 1:1 with water prior to analysis using a RapidFire sample injector system and API4000 mass spectrometer. Peak areas for substrate, metabolite and stable-labelled metabolite standard were determined using MS/MS. The peak area ratios between the metabolite generated by the enzymatic reaction and the internal standard were used in subsequent calculations. The percentage of (DMSO) control activity was calculated for each incubate and IC50 values estimated by non-linear regression. Sulfaphenazole, quinidine or ketoconazole were tested in each CYP2C9, CYP2D6 or CYP3A4 inhibition experiment, respectively, to ensure assay sensitivity and reproducibility. (Validated assays for human cytochrome P450 activities^11)

T1 sequence (P56817 46-501): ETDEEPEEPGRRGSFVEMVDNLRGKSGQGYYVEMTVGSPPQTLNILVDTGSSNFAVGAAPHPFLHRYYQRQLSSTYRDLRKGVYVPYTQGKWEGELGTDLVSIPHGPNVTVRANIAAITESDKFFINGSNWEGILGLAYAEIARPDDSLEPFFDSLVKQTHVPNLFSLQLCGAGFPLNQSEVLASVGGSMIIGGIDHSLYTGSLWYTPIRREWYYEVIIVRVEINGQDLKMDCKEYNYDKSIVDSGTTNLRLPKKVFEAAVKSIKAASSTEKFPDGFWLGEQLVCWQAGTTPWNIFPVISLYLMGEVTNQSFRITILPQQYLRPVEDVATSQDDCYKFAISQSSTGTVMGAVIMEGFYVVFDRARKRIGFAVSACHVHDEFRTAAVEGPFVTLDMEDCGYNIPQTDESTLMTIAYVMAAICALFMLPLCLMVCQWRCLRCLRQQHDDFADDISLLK
T2 sequence (P07339 65-162 limits assumed): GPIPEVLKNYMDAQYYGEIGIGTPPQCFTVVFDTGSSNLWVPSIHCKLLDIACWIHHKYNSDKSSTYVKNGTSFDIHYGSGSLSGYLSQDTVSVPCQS
T2 sequence (P07339 169-412 limits assumed): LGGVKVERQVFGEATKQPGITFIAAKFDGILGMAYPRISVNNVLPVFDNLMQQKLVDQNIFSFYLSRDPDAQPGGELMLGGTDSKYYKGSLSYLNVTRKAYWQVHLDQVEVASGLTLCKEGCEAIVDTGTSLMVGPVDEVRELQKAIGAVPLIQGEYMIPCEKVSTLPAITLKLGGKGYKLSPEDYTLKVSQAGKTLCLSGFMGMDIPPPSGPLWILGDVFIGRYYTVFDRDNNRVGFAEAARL
T3 sequence (P10635 whole entry): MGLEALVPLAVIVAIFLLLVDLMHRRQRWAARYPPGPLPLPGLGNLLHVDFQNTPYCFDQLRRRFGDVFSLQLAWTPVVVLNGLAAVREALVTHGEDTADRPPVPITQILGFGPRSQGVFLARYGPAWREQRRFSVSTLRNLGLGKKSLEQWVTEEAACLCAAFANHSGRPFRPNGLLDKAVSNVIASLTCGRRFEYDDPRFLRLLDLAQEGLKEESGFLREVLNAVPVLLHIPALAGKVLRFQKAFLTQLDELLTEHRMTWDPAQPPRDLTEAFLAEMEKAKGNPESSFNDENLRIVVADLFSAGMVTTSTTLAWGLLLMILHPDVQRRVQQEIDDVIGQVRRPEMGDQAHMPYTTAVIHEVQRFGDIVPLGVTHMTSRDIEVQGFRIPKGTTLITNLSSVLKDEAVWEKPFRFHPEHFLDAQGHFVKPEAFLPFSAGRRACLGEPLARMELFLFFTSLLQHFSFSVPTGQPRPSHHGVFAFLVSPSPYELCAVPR

Row | Structure (SMILES) | IC50 (BACE1) [µM] | IC50 [1] [µM] | IC50 (CYP2D6) [µM]
1 | C[C@]1(c2cc(NC(=O)c3ccc(C#N)cn3)ccc2F)N=C(N)O[C@@H]2CCC(F)(F)[C@@H]21 [Example 2, 5-Cyano-pyridine-2-carboxylic acid [3-((4S,4aR,7aR)-2-amino-5,5-difluoro-4-methyl-4,4a,5,6,7,7a-hexahydro-cyclopenta[e][1,3]oxazin-4-yl)-4-fluoro-phenyl]-amide] | 0.0015 | > 200 | > 10
2 | C[C@]1(c2cc(NC(=O)c3ccc(C#N)cn3)ccc2F)N=C(N)O[C@@H]2CCCC(F)(F)[C@@H]21 [Example 8, 5-Cyano-pyridine-2-carboxylic acid [3-((4S,4aR,8aR)-2-amino-5,5-difluoro-4-methyl-4a,5,6,7,8,8a-hexahydro-4H-benzo[e][1,3]oxazin-4-yl)-4-fluoro-phenyl]-amide] | 0.0022 | > 200 | > 10
3 | CC#CCOc1cnc(C(=O)Nc2ccc(F)c([C@@]3(C)N=C(N)O[C@@H]4CCC(F)(F)[C@@H]43)c2)cn1 [Example 1, 5-But-2-ynyloxy-pyrazine-2-carboxylic acid [3-((4S,4aR,7aR)-2-amino-5,5-difluoro-4-methyl-4,4a,5,6,7,7a-hexahydro-cyclopenta[e][1,3]oxazin-4-yl)-4-fluoro-phenyl]-amide] | 0.0004 | 135 | 1 to 10
